Experimental data published in patent US20240081300A1, “ADRENERGIC MECHANISMS OF AUDIOGENIC SEIZURE-INDUCED DEATH IN MOUSE MODEL OF SCN8A ENCEPHALOPATHY” (University of Virginia Patent Foundation, priority 2021, published 2024).
Entries after “also recorded” stand apart in the source; their conditions may differ.

Experiments:
[1] = tested on: adult D/+ mice (Scn8a N1768D); test: Audiogenic seizure survival in adult D/+ mice after adrenergic receptor inhibition; assay type: in vivo, mouse; conditions: 10 mg/kg sotalol i.p. 15 minutes prior to audiogenic seizure stimulation
Description: (§1) Audiogenic seizure assessment. To test for audiogenic seizures mice were taken from their home cage and transferred to a clean test cage where they were allowed to acclimate for ˜20 seconds before the onset of the acoustic stimulus. Similar to a method described previously (Martin et al., 2020), a sonicator (Branson 200 ultrasonic cleaner) was used to produce the audiogenic stimulus directly adjacent to the test cage.
(§2) Audiogenic seizures were recorded using a laptop webcam. Duration of seizure phases were analyzed by taking the time in seconds that the mouse spent in each of the phases: a wild-running phase characterized by fast circular running throughout the cage, a tonic phase characterized by hindlimb extension and muscle rigidity, a clonic phase typified by myoclonic jerking of the hindlimbs, and recovery exemplified when the mouse ceased myoclonic jerking and righted itself. In cases where death occurred, the end of the tonic phase was apparent at the point of hindlimb muscle relaxation.
(§3) For recording of only breathing in pharmacological experiments, non-implanted mice were placed in the chambers immediately after injection of pharmacological agents. Stimulation of audiogenic seizures and recording of breathing were performed as described above.
Mechanical ventilation. […]

[2] = tested on: P20-21 D/+ mice (Scn8a N1768D); test: Audiogenic seizure-induced death in P20-21 D/+ mice (adrenergic agonists, adrenergic blockade with mechanical ventilation); assay type: in vivo, mouse; conditions: for postictal breathing recovery (plethysmography): 3 mg/kg phenylephrine i.p. 1 minute prior
Description: as §1, §2, §3
Mechanical ventilation. For the mechanical ventilation of P20-21 D/+ mice during an audiogenic seizure, we quickly placed a custom-made 3 mL pipet which fit snuggly over the mouse's nose and mouth and provided regular pulses of air (˜1 mL at 2 Hz). The ventilation was terminated after the mouse initiated gasping behavior or 20 s after the animal experienced sudden death.
Adrenergic receptor pharmacology. All chemicals were purchased from Sigma Aldrich and were either of pharmaceutical grade or were sterile filtered prior to injection. Injections were given intraperitoneal in a volume of 50-100 ul sterile saline per […] of mouse weight (e.g. 0.1 mL for a […] adult mouse). […] Injection of 50-100 ul sterile saline per […] of mouse weight was used as control.

[3] = tested on: maximal electroshock seizures; conditions: intracerebroventricular injection (Kruse et al., 2019); cited from earlier work
DBA1 mice = conditions: intracerebroventricular injection (Zhao et al., 2017); cited from earlier work

## CC(C)NCC(O)c1ccc(NS(C)(=O)=O)cc1 (stereo not shown) [sotalol]
[1]
  survival after audiogenic seizure (mice surviving of mice tested): 12 out of 12 and had no affect on death rate

## CNC[C@H](O)c1ccc(O)c(O)c1 [epinephrine]
[2]; 2 mg/kg epinephrine i.p. 1 minute prior to audiogenic seizure stimulation, 2 mg/kg
  survival after audiogenic seizure (mice rescued of mice tested): one of the five; also recorded: did not seem to result in rescue

## NC[C@H](O)c1ccc(O)c(O)c1 [NE, 4-[(1R)-2-amino-1-hydroxyethyl]benzene-1,2-diol]
[2]; 2 mg/kg norepinephrine i.p. 1 minute prior
  breathing recovery after tonic phase (plethysmography): resulted in breathing recovery
[2]; 2 mg/kg norepinephrine i.p. 1 minute prior to audiogenic seizure stimulation, saline 3 of 13, 2 mg/kg
  survival after audiogenic seizure (mice surviving of mice tested): 10 of 13 and significantly elevated rates of survival

## CNC[C@H](O)c1cccc(O)c1 [phenylephrine, 3-[(1R)-1-hydroxy-2-(methylamino)ethyl]phenol]
[2]; 3 mg/kg phenylephrine i.p. 1 minute prior to audiogenic seizure stimulation, 3 mg/kg
  survival after audiogenic seizure (mice surviving of mice tested): 7 out of 8 and rescued death
[2]; 3 mg/kg phenylephrine i.p. 1 minute prior to audiogenic seizure stimulation, listed as PE, 3 mg/kg
  survival after audiogenic seizure (mice surviving of mice tested): significantly elevated rates of survival
[2]; 3 mg/kg
  postictal breathing recovery (plethysmography): promoted postictal breathing recovery
[2]; listed as PE, 3 mg/kg
  postictal breathing recovery (plethysmography): breathing also ceased during the tonic phase but recovered
[3]
  prevention of death from maximal electroshock seizures: prevents death

## CNCC[C@@H](Oc1ccccc1C)c1ccccc1 [atomoxetine]
DBA1 mice
  prevention of death from audiogenic seizures: prevents death
